{"source": "paper PMC6197744", "about": "“Triazolo[4,5-d]pyrimidines as Validated General Control Nonderepressible 2 (GCN2) Protein Kinase Inhibitors Reduce Growth of Leukemia Cells” (Computational and Structural Biotechnology Journal, 2018)", "test_in_all_cases": "Broad kinase panel screen (split-luciferase)", "assay_type_in_all_cases": "binding", "key": {"[1]": {"target": "T1, MSK2/RPS6KA4 (Homo sapiens, UniProt O75676)", "T1 construct": "purchased Luceome Biotechnologies", "conditions": "MSK2/RPS6KA4, 0.5 uM", "method": "(§1) Compound 2 was screened against a standard panel of 50 protein kinases by Luceome Biotechnologies (Tucson, AZ). In brief, Compound 2 was dissolved and diluted in DMSO to a concentration of 12.5 μM from a 10 mM stock solution. As a control, compound 2 was evaluated for false positive against split-luciferase. For kinase assays, each C-terminal half of firefly luciferase linked kinase (Cfluc-Kinase) was translated along with the coiled coil Fos attached to the N-terminal fragment (Nfluc) (Fos-Nfluc) using rabbit reticulocyte lysate at 30 °C for 90 min. 24 µL aliquot of this lysate containing 1 µL of either DMSO or Compound 2 (at a final concentration 0.5 μM) was incubated for 30 minutes at room temperature followed by 1 hour incubation in the presence of a kinase specific probe. Finally, 80 µL of luciferin assay reagent was added and luminescence was immediately measured on a luminometer. Compound 2 was screened in duplicate against each kinase.\n(§2) The % Inhibition and % Activity Remaining was calculated using the following equations: […]"}, "[2]": {"target": "T2, SIK2 (Homo sapiens, UniProt Q9H0K1)", "T2 construct": "purchased Luceome Biotechnologies", "conditions": "SIK2, 0.5 uM", "method": "as §1, §2"}, "[3]": {"target": "T3, PKCe/PRKCE (Homo sapiens, UniProt Q02156)", "T3 construct": "purchased Luceome Biotechnologies", "T3 sequence (Q02156 whole entry)": "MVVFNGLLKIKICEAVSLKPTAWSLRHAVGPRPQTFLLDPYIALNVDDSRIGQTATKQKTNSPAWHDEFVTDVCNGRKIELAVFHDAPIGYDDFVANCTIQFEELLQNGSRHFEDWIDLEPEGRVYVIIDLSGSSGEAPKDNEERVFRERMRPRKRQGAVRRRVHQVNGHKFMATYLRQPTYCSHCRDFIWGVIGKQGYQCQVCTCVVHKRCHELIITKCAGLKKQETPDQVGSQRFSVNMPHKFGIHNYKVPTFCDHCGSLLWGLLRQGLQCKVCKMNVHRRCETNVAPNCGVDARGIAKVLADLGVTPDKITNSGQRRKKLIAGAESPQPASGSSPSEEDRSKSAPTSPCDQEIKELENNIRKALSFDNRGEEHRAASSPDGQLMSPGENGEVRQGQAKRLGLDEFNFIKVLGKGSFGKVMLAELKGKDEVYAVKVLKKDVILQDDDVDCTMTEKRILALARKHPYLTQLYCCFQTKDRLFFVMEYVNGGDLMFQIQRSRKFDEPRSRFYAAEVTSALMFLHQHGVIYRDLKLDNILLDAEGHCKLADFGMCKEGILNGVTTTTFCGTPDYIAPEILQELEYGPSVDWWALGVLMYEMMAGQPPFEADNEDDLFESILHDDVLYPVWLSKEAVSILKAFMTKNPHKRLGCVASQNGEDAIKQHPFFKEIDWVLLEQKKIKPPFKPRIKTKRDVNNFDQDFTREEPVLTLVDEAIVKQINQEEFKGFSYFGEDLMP", "method": "as §1, §2"}, "[4]": {"target": "T4, MARK1 (Homo sapiens, UniProt Q9P0L2)", "T4 construct": "purchased Luceome Biotechnologies", "conditions": "MARK1, 0.5 uM", "method": "as §1, §2"}, "[5]": {"target": "T5, PKG1/PRKG1 (Homo sapiens, UniProt Q13976)", "T5 construct": "purchased Luceome Biotechnologies", "T5 sequence (Q13976 whole entry)": "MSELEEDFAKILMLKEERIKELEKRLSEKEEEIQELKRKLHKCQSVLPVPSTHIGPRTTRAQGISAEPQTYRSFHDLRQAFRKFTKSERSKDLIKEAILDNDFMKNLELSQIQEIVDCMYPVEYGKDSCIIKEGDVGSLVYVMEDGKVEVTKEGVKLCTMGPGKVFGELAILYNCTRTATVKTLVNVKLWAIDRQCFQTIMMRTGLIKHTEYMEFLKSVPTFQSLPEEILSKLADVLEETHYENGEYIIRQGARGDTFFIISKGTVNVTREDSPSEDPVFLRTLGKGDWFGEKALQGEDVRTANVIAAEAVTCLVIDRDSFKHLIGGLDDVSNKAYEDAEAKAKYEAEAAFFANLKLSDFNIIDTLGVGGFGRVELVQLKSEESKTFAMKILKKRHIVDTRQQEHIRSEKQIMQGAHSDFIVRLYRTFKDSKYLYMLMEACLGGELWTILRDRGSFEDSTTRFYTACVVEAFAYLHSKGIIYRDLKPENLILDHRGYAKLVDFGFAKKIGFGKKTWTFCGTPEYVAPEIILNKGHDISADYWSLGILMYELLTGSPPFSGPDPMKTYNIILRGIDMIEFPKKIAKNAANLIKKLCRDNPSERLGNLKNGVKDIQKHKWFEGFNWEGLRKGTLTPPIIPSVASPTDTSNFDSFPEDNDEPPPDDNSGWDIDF", "conditions": "PKG1/PRKG1, 0.5 uM", "method": "as §1, §2"}, "[6]": {"target": "T6, EPHB2 (Homo sapiens, UniProt P29323)", "T6 construct": "purchased Luceome Biotechnologies", "T6 sequence (P29323 19-1055)": "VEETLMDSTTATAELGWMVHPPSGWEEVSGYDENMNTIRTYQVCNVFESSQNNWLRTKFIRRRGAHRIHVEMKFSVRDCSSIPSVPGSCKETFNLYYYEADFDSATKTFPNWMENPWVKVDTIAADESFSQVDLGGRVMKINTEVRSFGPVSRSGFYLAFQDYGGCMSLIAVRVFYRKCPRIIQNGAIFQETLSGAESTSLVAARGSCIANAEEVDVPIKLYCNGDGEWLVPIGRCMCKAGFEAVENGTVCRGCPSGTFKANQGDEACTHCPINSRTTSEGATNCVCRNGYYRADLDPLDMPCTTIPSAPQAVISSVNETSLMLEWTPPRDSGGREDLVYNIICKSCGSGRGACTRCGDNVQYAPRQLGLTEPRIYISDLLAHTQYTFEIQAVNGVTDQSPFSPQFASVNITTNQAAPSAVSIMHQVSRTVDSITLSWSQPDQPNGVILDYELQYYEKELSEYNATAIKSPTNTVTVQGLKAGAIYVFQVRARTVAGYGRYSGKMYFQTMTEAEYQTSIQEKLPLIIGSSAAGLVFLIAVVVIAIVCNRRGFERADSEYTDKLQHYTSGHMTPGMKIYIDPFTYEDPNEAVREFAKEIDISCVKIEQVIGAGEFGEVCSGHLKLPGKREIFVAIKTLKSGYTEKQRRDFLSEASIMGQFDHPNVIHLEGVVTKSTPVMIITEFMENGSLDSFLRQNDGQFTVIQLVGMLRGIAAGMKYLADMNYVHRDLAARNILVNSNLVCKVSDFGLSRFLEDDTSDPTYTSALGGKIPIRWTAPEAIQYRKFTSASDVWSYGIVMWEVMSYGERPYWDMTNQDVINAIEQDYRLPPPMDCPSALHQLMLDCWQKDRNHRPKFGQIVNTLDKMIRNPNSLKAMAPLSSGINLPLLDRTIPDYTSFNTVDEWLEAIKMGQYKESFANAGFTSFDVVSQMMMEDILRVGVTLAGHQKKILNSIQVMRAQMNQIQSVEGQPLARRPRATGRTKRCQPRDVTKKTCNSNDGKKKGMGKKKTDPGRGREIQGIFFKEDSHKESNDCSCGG", "conditions": "EPHB2, 0.5 uM", "method": "as §1, §2"}, "[7]": {"target": "T7, MAP3K10 /MLK2 (Homo sapiens, UniProt Q02779)", "T7 construct": "purchased Luceome Biotechnologies", "conditions": "MAP3K10 /MLK2, 0.5 uM", "method": "as §1, §2"}, "[8]": {"target": "T8, CAMK2D (Homo sapiens, UniProt Q13557)", "T8 construct": "purchased Luceome Biotechnologies", "method": "as §1, §2"}, "[9]": {"target": "T9, AKT3 (Homo sapiens, UniProt Q9Y243)", "T9 construct": "purchased Luceome Biotechnologies", "conditions": "AKT3, 0.5 uM", "method": "as §1, §2"}, "[10]": {"target": "T10, PIM1 (Homo sapiens, UniProt P11309)", "T10 construct": "purchased Luceome Biotechnologies", "conditions": "PIM1, 0.5 uM", "method": "as §1, §2"}, "[11]": {"target": "T11, TNK1 (Homo sapiens, UniProt Q13470)", "T11 construct": "purchased Luceome Biotechnologies", "conditions": "TNK1, 0.5 uM", "method": "as §1, §2"}, "[12]": {"target": "T12, MUSK (Homo sapiens, UniProt O15146)", "T12 construct": "purchased Luceome Biotechnologies", "method": "as §1, §2"}, "[13]": {"target": "T13, ABL1 (Homo sapiens, UniProt P00519)", "T13 construct": "purchased Luceome Biotechnologies", "conditions": "ABL1, 0.5 uM", "method": "as §1, §2"}, "[14]": {"target": "T14, DDR1 (Homo sapiens, UniProt Q08345)", "T14 construct": "purchased Luceome Biotechnologies", "conditions": "DDR1, 0.5 uM", "method": "as §1, §2"}, "[15]": {"target": "T15, PKA/PRKACA (Homo sapiens, UniProt P17612)", "T15 construct": "purchased Luceome Biotechnologies", "method": "as §1, §2"}, "[16]": {"target": "T16, ITK (Homo sapiens, UniProt Q08881)", "T16 construct": "purchased Luceome Biotechnologies", "method": "as §1, §2"}, "[17]": {"target": "T17, AURKC (Homo sapiens, UniProt Q9UQB9)", "T17 construct": "purchased Luceome Biotechnologies", "method": "as §1, §2"}, "[18]": {"target": "T18, AKT1 (Homo sapiens, UniProt P31749)", "T18 construct": "purchased Luceome Biotechnologies", "conditions": "AKT1, 0.5 uM", "method": "as §1, §2"}, "[19]": {"target": "T19, MAPK14/p38a (Homo sapiens, UniProt Q16539)", "T19 construct": "purchased Luceome Biotechnologies", "method": "as §1, §2"}, "[20]": {"target": "T20, FLT3 (Homo sapiens, UniProt P36888)", "T20 construct": "purchased Luceome Biotechnologies", "conditions": "FLT3, 0.5 uM", "method": "as §1, §2"}, "[21]": {"target": "T21, PKX/PRKX (Homo sapiens, UniProt P51817)", "T21 construct": "purchased Luceome Biotechnologies", "T21 sequence (P51817 whole entry)": "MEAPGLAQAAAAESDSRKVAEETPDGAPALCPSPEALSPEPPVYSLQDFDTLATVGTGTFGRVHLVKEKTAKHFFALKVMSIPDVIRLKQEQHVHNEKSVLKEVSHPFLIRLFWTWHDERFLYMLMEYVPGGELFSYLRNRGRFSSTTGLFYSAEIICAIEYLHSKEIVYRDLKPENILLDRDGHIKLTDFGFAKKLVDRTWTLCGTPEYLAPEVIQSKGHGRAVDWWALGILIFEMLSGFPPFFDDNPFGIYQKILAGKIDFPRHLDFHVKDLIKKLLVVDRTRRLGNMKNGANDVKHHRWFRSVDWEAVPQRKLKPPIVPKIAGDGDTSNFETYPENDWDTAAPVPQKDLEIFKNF", "method": "as §1, §2"}, "[22]": {"target": "T22, PDK1/PDPK1 (Homo sapiens, UniProt O15530)", "T22 construct": "purchased Luceome Biotechnologies", "T22 sequence (O15530 whole entry)": "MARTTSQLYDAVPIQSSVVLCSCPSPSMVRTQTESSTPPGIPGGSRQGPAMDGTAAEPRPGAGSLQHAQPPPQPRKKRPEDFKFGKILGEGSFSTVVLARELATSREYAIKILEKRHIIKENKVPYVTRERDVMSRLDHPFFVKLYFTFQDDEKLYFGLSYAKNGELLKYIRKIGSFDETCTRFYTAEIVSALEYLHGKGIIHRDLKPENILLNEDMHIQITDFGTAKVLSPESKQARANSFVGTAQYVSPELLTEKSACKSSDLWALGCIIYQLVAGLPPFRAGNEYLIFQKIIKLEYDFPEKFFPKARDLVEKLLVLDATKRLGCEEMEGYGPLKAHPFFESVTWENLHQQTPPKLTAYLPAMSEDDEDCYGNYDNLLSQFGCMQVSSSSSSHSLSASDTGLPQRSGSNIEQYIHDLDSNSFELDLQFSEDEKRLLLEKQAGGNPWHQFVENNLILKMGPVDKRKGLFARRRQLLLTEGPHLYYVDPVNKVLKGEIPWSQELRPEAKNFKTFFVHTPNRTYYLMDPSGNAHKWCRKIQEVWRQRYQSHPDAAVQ", "conditions": "PDK1/PDPK1, 0.5 uM", "method": "as §1, §2"}, "[23]": {"target": "T23, MARK2 (Homo sapiens, UniProt Q7KZI7)", "T23 construct": "purchased Luceome Biotechnologies", "conditions": "MARK2, 0.5 uM", "method": "as §1, §2"}, "[24]": {"target": "T24, YSK1 (Homo sapiens, UniProt O00506)", "T24 construct": "purchased Luceome Biotechnologies", "conditions": "YSK1, 0.5 uM", "method": "as §1, §2"}, "[25]": {"target": "T25, DAPK3 (Homo sapiens, UniProt O43293)", "T25 construct": "purchased Luceome Biotechnologies", "conditions": "DAPK3, 0.5 uM", "method": "as §1, §2"}, "[26]": {"target": "T26, AURKA (Homo sapiens, UniProt O14965)", "T26 construct": "purchased Luceome Biotechnologies", "method": "as §1, §2"}, "[27]": {"target": "T27, SRC (Homo sapiens, UniProt P12931)", "T27 construct": "purchased Luceome Biotechnologies", "T27 sequence (P12931 whole entry)": "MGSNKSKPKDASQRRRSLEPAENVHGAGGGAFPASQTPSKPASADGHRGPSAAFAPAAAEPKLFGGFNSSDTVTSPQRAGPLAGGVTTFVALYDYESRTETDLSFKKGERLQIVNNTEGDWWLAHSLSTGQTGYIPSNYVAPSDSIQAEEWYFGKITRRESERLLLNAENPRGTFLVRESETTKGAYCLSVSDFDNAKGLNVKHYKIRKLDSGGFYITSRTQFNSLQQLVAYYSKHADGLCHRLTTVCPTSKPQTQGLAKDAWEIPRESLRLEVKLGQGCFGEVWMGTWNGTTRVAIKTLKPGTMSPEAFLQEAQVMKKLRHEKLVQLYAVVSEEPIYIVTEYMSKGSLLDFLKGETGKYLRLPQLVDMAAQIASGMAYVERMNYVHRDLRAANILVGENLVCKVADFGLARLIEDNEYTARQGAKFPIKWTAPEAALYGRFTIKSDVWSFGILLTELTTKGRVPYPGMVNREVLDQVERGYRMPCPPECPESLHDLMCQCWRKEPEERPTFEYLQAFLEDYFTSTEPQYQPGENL", "method": "as §1, §2"}, "[28]": {"target": "T28, VEGFR2/KDR/FLK1 (Homo sapiens, UniProt P35968)", "T28 construct": "purchased Luceome Biotechnologies", "conditions": "VEGFR2/KDR/FLK1, 0.5 uM", "method": "as §1, §2"}, "[29]": {"target": "T29, IGF1R (Homo sapiens, UniProt P08069)", "T29 construct": "purchased Luceome Biotechnologies", "method": "as §1, §2"}, "[30]": {"target": "T30, AMPK-a1/AMPK (Homo sapiens, UniProt Q13131)", "T30 construct": "purchased Luceome Biotechnologies", "method": "as §1, §2"}, "[31]": {"target": "T31, PLK4 (Homo sapiens, UniProt O00444)", "T31 construct": "purchased Luceome Biotechnologies", "conditions": "PLK4, 0.5 uM", "method": "as §1, §2"}, "[32]": {"target": "T32, PDGFRB (Homo sapiens, UniProt P09619)", "T32 construct": "purchased Luceome Biotechnologies", "T32 sequence (P09619 33-1106)": "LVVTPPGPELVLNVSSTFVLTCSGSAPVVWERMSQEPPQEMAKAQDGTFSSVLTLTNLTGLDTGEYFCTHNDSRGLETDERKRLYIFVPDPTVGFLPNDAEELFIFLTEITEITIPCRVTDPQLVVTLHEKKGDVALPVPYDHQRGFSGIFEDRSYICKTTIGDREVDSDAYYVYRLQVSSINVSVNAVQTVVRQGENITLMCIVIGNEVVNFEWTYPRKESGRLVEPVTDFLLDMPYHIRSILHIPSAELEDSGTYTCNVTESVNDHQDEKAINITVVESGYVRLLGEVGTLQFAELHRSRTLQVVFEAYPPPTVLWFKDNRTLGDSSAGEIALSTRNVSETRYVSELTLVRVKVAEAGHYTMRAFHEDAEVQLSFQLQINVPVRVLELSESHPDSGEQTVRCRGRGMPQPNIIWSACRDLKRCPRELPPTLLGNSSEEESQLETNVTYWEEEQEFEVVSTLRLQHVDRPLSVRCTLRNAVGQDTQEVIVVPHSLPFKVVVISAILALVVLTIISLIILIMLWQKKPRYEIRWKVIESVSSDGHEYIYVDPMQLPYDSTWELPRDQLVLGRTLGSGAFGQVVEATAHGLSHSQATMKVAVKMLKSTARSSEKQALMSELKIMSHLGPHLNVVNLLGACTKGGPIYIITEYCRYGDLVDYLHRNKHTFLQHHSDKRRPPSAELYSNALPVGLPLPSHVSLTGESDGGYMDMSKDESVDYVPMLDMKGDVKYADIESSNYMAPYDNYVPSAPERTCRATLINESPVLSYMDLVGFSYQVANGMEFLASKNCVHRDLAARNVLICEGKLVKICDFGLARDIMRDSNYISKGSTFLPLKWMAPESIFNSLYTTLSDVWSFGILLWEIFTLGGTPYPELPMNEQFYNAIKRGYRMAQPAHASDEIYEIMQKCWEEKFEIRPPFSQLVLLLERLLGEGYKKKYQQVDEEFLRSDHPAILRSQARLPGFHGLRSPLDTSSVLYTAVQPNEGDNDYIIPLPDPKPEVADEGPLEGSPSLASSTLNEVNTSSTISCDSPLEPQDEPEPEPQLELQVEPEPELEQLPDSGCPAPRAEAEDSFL", "method": "as §1, §2"}, "[33]": {"target": "T33, FLT1/VEGFR1 (Homo sapiens, UniProt P17948)", "T33 construct": "purchased Luceome Biotechnologies", "conditions": "FLT1/VEGFR1, 0.5 uM", "method": "as §1, §2"}, "[34]": {"target": "T34, SIK1/SNF1LK (Homo sapiens, UniProt P57059)", "T34 construct": "purchased Luceome Biotechnologies", "method": "as §1, §2"}, "[35]": {"target": "T35, AKT2 (Homo sapiens, UniProt P31751)", "T35 construct": "purchased Luceome Biotechnologies", "conditions": "AKT2, 0.5 uM", "method": "as §1, §2"}}}
{"compound": "CCOc1ccc(-n2nnc3cnc(Nc4cnn(CC)c4)nc32)cc1", "note": "[Compound 2, 3-(4-Ethoxyphenyl)-N-(1-ethyl-1H-pyrazol-4-yl)-3H-[1,2,3]triazolo[4,5-d]pyrimidin-5-amine]", "values": [{"measurement": "remaining activity at 0.5 µM", "setting": "[1]", "value": 100, "unit": "%"}, {"measurement": "remaining activity at 0.5 µM", "setting": "[2]", "value": 100, "unit": "%"}, {"measurement": "remaining activity at 0.5 µM", "setting": "[3]", "value": 100, "unit": "%"}, {"measurement": "remaining activity at 0.5 µM", "setting": "[4]", "value": 100, "unit": "%"}, {"measurement": "remaining activity at 0.5 µM", "setting": "[5]", "value": 96, "unit": "%"}, {"measurement": "remaining activity at 0.5 µM", "setting": "[6]", "value": 97.7, "unit": "%"}, {"measurement": "remaining activity at 0.5 µM", "setting": "[7]", "value": 96.7, "unit": "%"}, {"measurement": "remaining activity at 0.5 µM", "setting": "[8]", "value": 89.9, "unit": "%"}, {"measurement": "remaining activity at 0.5 µM", "setting": "[9]", "value": 100, "unit": "%"}, {"measurement": "remaining activity at 0.5 µM", "setting": "[10]", "value": 93.4, "unit": "%"}, {"measurement": "remaining activity at 0.5 µM", "setting": "[11]", "value": 100, "unit": "%"}, {"measurement": "remaining activity at 0.5 µM", "setting": "[12]", "value": 100, "unit": "%"}, {"measurement": "remaining activity at 0.5 µM", "setting": "[13]", "value": 88.9, "unit": "%"}, {"measurement": "remaining activity at 0.5 µM", "setting": "[14]", "value": 93.1, "unit": "%"}, {"measurement": "remaining activity at 0.5 µM", "setting": "[15]", "value": 100, "unit": "%"}, {"measurement": "remaining activity at 0.5 µM", "setting": "[16]", "value": 89.9, "unit": "%"}, {"measurement": "remaining activity at 0.5 µM", "setting": "[17]", "value": 98.7, "unit": "%"}, {"measurement": "remaining activity at 0.5 µM", "setting": "[18]", "value": 98.4, "unit": "%"}, {"measurement": "remaining activity at 0.5 µM", "setting": "[19]", "value": 100, "unit": "%"}, {"measurement": "remaining activity at 0.5 µM", "setting": "[20]", "value": 100, "unit": "%"}, {"measurement": "remaining activity at 0.5 µM", "setting": "[21]", "value": 97.7, "unit": "%"}, {"measurement": "remaining activity at 0.5 µM", "setting": "[22]", "value": 96.2, "unit": "%"}, {"measurement": "remaining activity at 0.5 µM", "setting": "[23]", "value": 99.3, "unit": "%"}, {"measurement": "remaining activity at 0.5 µM", "setting": "[24]", "value": 93.6, "unit": "%"}, {"measurement": "remaining activity at 0.5 µM", "setting": "[25]", "value": 97.6, "unit": "%"}, {"measurement": "remaining activity at 0.5 µM", "setting": "[26]", "value": 97.1, "unit": "%"}, {"measurement": "remaining activity at 0.5 µM", "setting": "[27]", "value": 99.1, "unit": "%"}, {"measurement": "remaining activity at 0.5 µM", "setting": "[28]", "value": 77.1, "unit": "%"}, {"measurement": "remaining activity at 0.5 µM", "setting": "[29]", "value": 100, "unit": "%"}, {"measurement": "remaining activity at 0.5 µM", "setting": "[30]", "value": 100, "unit": "%"}, {"measurement": "remaining activity at 0.5 µM", "setting": "[31]", "value": 100, "unit": "%"}, {"measurement": "remaining activity at 0.5 µM", "setting": "[32]", "value": 84.4, "unit": "%"}, {"measurement": "remaining activity at 0.5 µM", "setting": "[33]", "value": 51.7, "unit": "%"}, {"measurement": "remaining activity at 0.5 µM", "setting": "[34]", "value": 99.9, "unit": "%"}, {"measurement": "remaining activity at 0.5 µM", "setting": "[35]", "value": 96.8, "unit": "%"}]}
